Experimental data from ChEMBL document CHEMBL1201862, “PubChem BioAssay data set” (2004).
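Five compound concentrations were applied to cells in 96-well plates for 48 hours; endpoints were derived by simple linear interpolation of the resulting dose-response curve. GI50: concentration for 50% inhibition of growth.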 Activity calls are given as the source filed them. No stated cut-off is given here; in the data, active = GI50 up to about 1.1 µM and inactive = higher.

Experiments:
Experiment in all cases: NCI tumour cell line growth inhibition, 48 h
[1] = test system: HOP-92
[2] = test system: SK-OV-3
[3] = test system: SW-620
[4] = test system: SNB-19
[5] = test system: Malme-3M
[6] = test system: DU-145
[7] = test system: UO-31
[8] = test system: SN12C
[9] = test system: KM12
[10] = test system: SF-268
[11] = test system: ACHN
[12] = test system: OVCAR-4
[13] = test system: LOX IMVI
[14] = test system: COLO 205
[15] = test system: NCI-H460
[16] = test system: CCRF-CEM
[17] = test system: CAKI-1
[18] = test system: UACC-62
[19] = test system: M14
[20] = test system: MDA-MB-231

Structure (SMILES) | GI50 [1] | GI50 [2] | GI50 [3] | GI50 [4] | GI50 [5] | GI50 [6] | GI50 [7] | GI50 [8] | GI50 [9] | GI50 [10] | GI50 [11] | GI50 [12] | GI50 [13] | GI50 [14] | GI50 [15] | GI50 [16] | GI50 [17] | GI50 [18] | GI50 [19] | GI50 [20]
C=C(CN(C)C)C(=O)c1ccc(OC2OC(COC(C)=O)C(OC(C)=O)C(OC(C)=O)C2OC(C)=O)cc1 (stereo not given) | 0.581 µM (active) | 19.4 µM (inactive) | 0.678 µM (active) | 19.8 µM (inactive) | 1.96 µM (inactive) | 17.5 µM (inactive) | 2.34 µM (inactive) | 9.98 µM (inactive) | 17.6 µM (inactive) | 19.7 µM (inactive) | 1.62 µM (inactive) | 3.75 µM (inactive) | 3.35 µM (inactive) | 0.753 µM (active) | 20.1 µM (inactive) | 0.185 µM (active) | 1.59 µM (inactive) | 4.7 µM (inactive) | 2.4 µM (inactive) | 5 µM (inactive)
NC(CSC1(c2ccc(Cl)cc2)c2ccccc2-c2ccccc21)C(=O)O (stereo not given) | 20.7 µM (inactive) | 25.1 µM (inactive) | 42.6 µM (inactive) | 21.3 µM (inactive) | 19.6 µM (inactive) | 34.5 µM (inactive) | 28.7 µM (inactive) | 19.1 µM (inactive) | 24.1 µM (inactive) | 20.5 µM (inactive) | 22.8 µM (inactive) | 22.2 µM (inactive) | 16.7 µM (inactive) | 15.5 µM (inactive) | 18.1 µM (inactive) | 29.1 µM (inactive) | 33.5 µM (inactive) | 15.4 µM (inactive) | 26.4 µM (inactive) | 18 µM (inactive)
CC(C)CCc1n[nH]c(=O)n1/N=C\c1ccccc1 | > 100 µM (inactive) | > 100 µM (inactive) | > 100 µM (inactive) | > 100 µM (inactive) | > 100 µM (inactive) | > 100 µM (inactive) | 26.4 µM (inactive) | > 100 µM (inactive) | > 100 µM (inactive) | > 100 µM (inactive) | > 100 µM (inactive) | > 100 µM (inactive) | > 100 µM (inactive) | > 100 µM (inactive) | > 100 µM (inactive) | > 100 µM (inactive) | > 10 µM (inactive) | > 100 µM (inactive) | > 100 µM (inactive) | > 100 µM (inactive)
CCCC[C@H]1C(=O)O[C@H](C)[C@H](NC(=O)c2cccc(NC=O)c2OC)C(=O)O[C@@H](C)[C@@H]1OC(=O)C(C)CC.CCCC[C@H]1C(=O)O[C@H](C)[C@H](NC(=O)c2cccc(NC=O)c2OC)C(=O)O[C@@H](C)[C@@H]1OC(=O)CC(C)C (stereo not given in full) | 6.98 µM (inactive) | 12.5 µM (inactive) | 20.3 µM (inactive) | 9.44 µM (inactive) | 15.8 µM (inactive) | 13.4 µM (inactive) | 14.8 µM (inactive) | 17.3 µM (inactive) | 11.6 µM (inactive) | 14.2 µM (inactive) | 10.8 µM (inactive) | 7.94 µM (inactive) | 10.3 µM (inactive) | 11.7 µM (inactive) | 5.35 µM (inactive) | 3.32 µM (inactive) | 7.87 µM (inactive) | 7.14 µM (inactive) | 14.6 µM (inactive) | 12.1 µM (inactive)
C/C=C(\C)C(=O)OC1C2C(C)C(=O)OC2C(O)C(C)C2C=CC(=O)C21C (stereo not given) | 13.4 µM (inactive) | 16.6 µM (inactive) | 14 µM (inactive) | 13.2 µM (inactive) | 12.6 µM (inactive) | 10.9 µM (inactive) | 14.8 µM (inactive) | 14.9 µM (inactive) | 11.1 µM (inactive) | 18.6 µM (inactive) | 12.3 µM (inactive) | 16.9 µM (inactive) | 13.2 µM (inactive) | 12.7 µM (inactive) | 4.49 µM (inactive) | 3.06 µM (inactive) | 13 µM (inactive) | 10.5 µM (inactive) | 14.9 µM (inactive) | 3.69 µM (inactive)
N/C(=N\c1ccc(Cl)cc1)NS(=O)(=O)c1cc(Cl)c(Oc2ccc([N+](=O)[O-])cc2Cl)c(Cl)c1 | 17.2 µM (inactive) | 17.4 µM (inactive) | 20 µM (inactive) | 17.6 µM (inactive) | > 100 µM (inactive) | 15.7 µM (inactive) | 18.8 µM (inactive) | 17.5 µM (inactive) | 17.8 µM (inactive) | > 100 µM (inactive) | 16 µM (inactive) | 16 µM (inactive) | 16.1 µM (inactive) | 16.1 µM (inactive) | 18.4 µM (inactive) | 19.7 µM (inactive) | 17.2 µM (inactive) | 12.2 µM (inactive) | 18.6 µM (inactive) | 16.6 µM (inactive)
CCC1(c2ccc(N3C(=O)c4cc(OC)c(OC)cc4C3=O)cc2)CCC(=O)NC1=O (stereo not given) | > 10 µM (inactive) | > 10 µM (inactive) | > 10 µM (inactive) | > 10 µM (inactive) | > 10 µM (inactive) | > 10 µM (inactive) | > 10 µM (inactive) | > 10 µM (inactive) | > 10 µM (inactive) | > 10 µM (inactive) | > 10 µM (inactive) | > 10 µM (inactive) | > 10 µM (inactive) | > 10 µM (inactive) | > 10 µM (inactive) | > 10 µM (inactive) | > 10 µM (inactive) | > 10 µM (inactive) | > 10 µM (inactive) | > 10 µM (inactive)
CC(=O)NC1C(O)C(O)C(CO)OC1n1nc(SCc2ccccc2)c(=O)[nH]c1=O (stereo not given) | > 100 µM (inactive) | > 100 µM (inactive) | > 100 µM (inactive) | > 100 µM (inactive) | > 100 µM (inactive) | > 100 µM (inactive) | > 100 µM (inactive) | > 100 µM (inactive) | > 100 µM (inactive) | > 100 µM (inactive) | > 100 µM (inactive) | > 100 µM (inactive) | > 100 µM (inactive) | > 100 µM (inactive) | > 100 µM (inactive) | > 100 µM (inactive) | > 100 µM (inactive) | > 100 µM (inactive) | > 100 µM (inactive) | > 100 µM (inactive)
